Where two headings read alike, the source gives them in different places.

For orientation: inhibition means the change of the read-out against control, counted positive when it falls.

For the assay, the target named is T1, chimeric human H3 receptor (Homo sapiens, UniProt Q9Y5N1).
T1 construct: rat Galpha-i2 (Gnai2, rat); made in house; host or cells: Sf9 insect cells (baculovirus); P2 membranes
The assay is described as follows: Chimeric human H3 receptor screening GTP binding assay (inhibition of histamine-stimulated GTP-gamma35S binding, Example 8). It counts as biochemical. The procedure, abridged:
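Sf9 membranes co-expressing chimeric human H3 receptor and heterotrimeric G-protein (35 μg protein) incubated 60 min at room temperature with 4 μM compound, 1 μM histamine and 125 pM GTP-gamma35S in pH 7.4 buffer with 10 μM GDP. Filter-bound radioactivity, nonspecific (10 μM GTP-gammaS) subtracted, reported as % inhibition of histamine signal.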

The mark [1] stands for this setting: symbol ! in Ki, test compound 4 μM, 1 μM histamine, read-out: percent inhibition of agonist-induced GTP-gammaS binding to H3.
[2] abbreviates: 1 h, assay described in Example 8, symbol "!" in column headed Ki, read-out: Ki ("!": percent inhibition of agonist-induced GTP-gammaS binding to H3).
[3] abbreviates: 1 h, assay of Example 8, symbol "!" in column headed Ki, read-out: percent inhibition of agonist-induced GTP-gammaS binding to H3.

T1 sequence (Q9Y5N1 with tags, fused parts or gaps): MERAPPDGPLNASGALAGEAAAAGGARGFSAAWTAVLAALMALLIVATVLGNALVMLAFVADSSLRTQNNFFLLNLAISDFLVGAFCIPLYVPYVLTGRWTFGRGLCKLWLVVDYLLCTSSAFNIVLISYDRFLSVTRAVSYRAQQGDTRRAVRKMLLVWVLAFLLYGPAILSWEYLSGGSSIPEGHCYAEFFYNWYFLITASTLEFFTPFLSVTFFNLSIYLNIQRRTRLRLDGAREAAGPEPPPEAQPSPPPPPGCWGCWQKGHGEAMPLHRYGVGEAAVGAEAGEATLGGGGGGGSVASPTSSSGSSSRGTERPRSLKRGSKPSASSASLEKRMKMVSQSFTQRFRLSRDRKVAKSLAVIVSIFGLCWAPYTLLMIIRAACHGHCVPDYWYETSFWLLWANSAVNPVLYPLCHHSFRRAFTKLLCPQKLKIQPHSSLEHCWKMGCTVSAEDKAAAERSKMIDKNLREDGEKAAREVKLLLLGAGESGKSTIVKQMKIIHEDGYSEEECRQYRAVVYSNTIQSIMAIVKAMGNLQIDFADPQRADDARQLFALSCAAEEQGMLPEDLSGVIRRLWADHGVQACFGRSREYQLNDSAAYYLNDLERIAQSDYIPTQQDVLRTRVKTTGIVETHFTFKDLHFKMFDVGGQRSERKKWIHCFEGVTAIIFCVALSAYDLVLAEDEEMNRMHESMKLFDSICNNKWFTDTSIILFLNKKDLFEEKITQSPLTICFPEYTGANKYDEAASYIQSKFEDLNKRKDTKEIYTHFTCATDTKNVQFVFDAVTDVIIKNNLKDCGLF

Consider `CCCC(C)C(=O)N1CCc2c(ncnc2N2CCN(C3CCC3)CC2)C1` (centres unmarked) [Compound 61, 4-(4-cyclobutylpiperazin-1-yl)-7-(2-methylpentanoyl)-5,6,7,8-tetrahydropyrido[3,4-d]pyrimidine], for which the inhibition at 4 µM under setting [1] is at least 90%. For `O=C(c1cc(F)ccc1F)N1CCc2cnc(N3CCN(C4CCC4)CC3)nc2CC1` [Compound 391, 2-(4-cyclobutylpiperazin-1-yl)-7-(2,5-difluorobenzoyl)-6,7,8,9-tetrahydro-5H-pyrimido[4,5-d]azepine], under setting [2], the inhibition at 4 µM is at least 90%.

Regarding `CC(C)CN1CCc2ncnc(N3CCN(C4CCC4)CC3)c2CC1` [Compound 166, 4-(4-cyclobutylpiperazin-1-yl)-7-isobutyl-6,7,8,9-tetrahydro-5H-pyrimido[4,5-d]azepine], the inhibition at 4 µM under setting [1] is at least 90%.

Take `c1ccc2c(CN3CCc4ncnc(N5CCN(C6CCC6)CC5)c4CC3)ccnc2c1` [Compound 151, 4-(4-cyclobutylpiperazin-1-yl)-7-(quinolin-4-ylmethyl)-6,7,8,9-tetrahydro-5H-pyrimido[4,5-d]azepine]: the inhibition at 4 µM under setting [1] was at least 90%. For the compound `Cc1ccc(C(=O)N2CCc3cnc(N4CCN(C5CCC5)CC4)nc3CC2)c(C)c1` [Compound 407, 2-(4-cyclobutylpiperazin-1-yl)-7-(2,4-dimethylbenzoyl)-6,7,8,9-tetrahydro-5H-pyrimido[4,5-d]azepine], the inhibition at 4 µM under setting [2] is at least 90%. Turning to `Cc1noc(C)c1C(=O)N1CCc2c(ncnc2N2CCN(C3CCC3)CC2)C1` [Compound 37, 4-(4-cyclobutylpiperazin-1-yl)-7-[(3,5-dimethylisoxazol-4-yl)carbonyl]-5,6,7,8-tetrahydropyrido[3,4-d]pyrimidine], the inhibition at 4 µM under setting [1] is at least 90%. The same measure, in the same setting: the same measure for `CCC(=O)N1CCc2c(ncnc2N2CCN(C3CCC3)CC2)C1` [Compound 42, 4-(4-cyclobutylpiperazin-1-yl)-7-propionyl-5,6,7,8-tetrahydropyrido[3,4-d]pyrimidine]: at least 90%.

Regarding `Cc1cccc(OC(C)C(=O)N2CCc3cnc(N4CCN(C5CCC5)CC4)nc3CC2)c1C` (centres unmarked) [Compound 347, 2-(4-cyclobutylpiperazin-1-yl)-7-[2-(2,3-dimethylphenoxy)propanoyl]-6,7,8,9-tetrahydro-5H-pyrimido[4,5-d]azepine], the inhibition at 4 µM under setting [3] is at least 90%. For `COc1cc(Cl)c(C(=O)N2CCc3cnc(N4CCN(C5CCC5)CC4)nc3CC2)cc1OC` [Compound 428, 7-(2-chloro-4,5-dimethoxybenzoyl)-2-(4-cyclobutylpiperazin-1-yl)-6,7,8,9-tetrahydro-5H-pyrimido[4,5-d]azepine], the inhibition at 4 µM under setting [2] was at least 90%.

Take `CC(C)Oc1ncccc1C(=O)N1CCc2cnc(N3CCN(C4CCC4)CC3)nc2CC1` [Compound 546, 2-(4-cyclobutylpiperazin-1-yl)-7-[(2-isopropoxypyridin-3-yl)carbonyl]-6,7,8,9-tetrahydro-5H-pyrimido[4,5-d]azepine]: under setting [2], the inhibition at 4 µM was at least 90%. Turning to `COc1cccc(C(=O)N2CCc3cnc(N4CCN(C5CCC5)CC4)nc3CC2)c1` [Compound 190, 2-(4-cyclobutylpiperazin-1-yl)-7-(3-methoxybenzoyl)-6,7,8,9-tetrahydro-5H-pyrimido[4,5-d]azepine], the inhibition at 4 µM under setting [3] is at least 90%. Consider `Cc1ccc(C(=O)N2CCc3cnc(N4CCN(C5CCC5)CC4)nc3CC2)cc1Cl` [Compound 394, 7-(3-chloro-4-methylbenzoyl)-2-(4-cyclobutylpiperazin-1-yl)-6,7,8,9-tetrahydro-5H-pyrimido[4,5-d]azepine], for which, under setting [2], the inhibition at 4 µM was at least 90%.

Turning to `Nc1ccc(C(=O)N2CCc3cnc(N4CCN(C5CCC5)CC4)nc3CC2)cc1` [Compound 533, 4-{[2-(4-cyclobutylpiperazin-1-yl)-5,6,8,9-tetrahydro-7H-pyrimido[4,5-d]azepin-7-yl]carbonyl}aniline], the inhibition at 4 µM under setting [2] was at least 90%. For `O=C(C1CCCCC1)N1CCc2cnc(N3CCN(C4CCC4)CC3)nc2CC1` [Compound 218, 2-(4-cyclobutylpiperazin-1-yl)-7-(cyclohexylcarbonyl)-6,7,8,9-tetrahydro-5H-pyrimido[4,5-d]azepine], the inhibition at 4 µM under setting [3] is at least 90%. Take `O=C(c1c(F)cccc1F)N1CCc2cnc(N3CCN(C4CCC4)CC3)nc2CC1` [Compound 389, 2-(4-cyclobutylpiperazin-1-yl)-7-(2,6-difluorobenzoyl)-6,7,8,9-tetrahydro-5H-pyrimido[4,5-d]azepine]: under setting [2], the inhibition at 4 µM is at least 90%. As for `CCC(C)N1CCc2c(ncnc2N2CCN(C3CCC3)CC2)C1` (centres unmarked) [Compound 117, 7-sec-butyl-4-(4-cyclobutylpiperazin-1-yl)-5,6,7,8-tetrahydropyrido[3,4-d]pyrimidine], the inhibition at 4 µM under setting [1] is at least 90%. In the case of `O=C(c1c(F)cccc1C(F)(F)F)N1CCc2cnc(N3CCN(C4CCC4)CC3)nc2CC1` [Compound 434, 2-(4-cyclobutylpiperazin-1-yl)-7-[2-fluoro-6-(trifluoromethyl)benzoyl]-6,7,8,9-tetrahydro-5H-pyrimido[4,5-d]azepine], the inhibition at 4 µM under setting [2] is at least 90%. As to `CCCCc1ccc(C(=O)N2CCc3cnc(N4CCN(C5CCC5)CC4)nc3CC2)cc1` [Compound 363, 7-(4-butylbenzoyl)-2-(4-cyclobutylpiperazin-1-yl)-6,7,8,9-tetrahydro-5H-pyrimido[4,5-d]azepine], the inhibition at 4 µM under setting [3] was at least 90%. As to `CC(C)c1ccc(CN2CCc3nc(N4CCN(C5CCC5)CC4)ncc3C2)cc1` [Compound 625, 2-(4-cyclobutylpiperazin-1-yl)-6-(4-isopropylbenzyl)-5,6,7,8-tetrahydropyrido[4,3-d]pyrimidine], the inhibition at 4 µM under setting [1] is at least 90%.

For `O=C(c1cccc(F)c1)N1CCc2cnc(N3CCN(C4CCC4)CC3)nc2CC1` [Compound 193, 2-(4-cyclobutylpiperazin-1-yl)-7-(3-fluorobenzoyl)-6,7,8,9-tetrahydro-5H-pyrimido[4,5-d]azepine], under setting [3], the inhibition at 4 µM was at least 90%. For the compound `CCCCn1c(C(=O)N2CCc3cnc(N4CCN(C5CCC5)CC4)nc3CC2)cc2ccccc21` [Compound 454, 7-[(1-butyl-1H-indol-2-yl)carbonyl]-2-(4-cyclobutylpiperazin-1-yl)-6,7,8,9-tetrahydro-5H-pyrimido[4,5-d]azepine], the inhibition at 4 µM under setting [2] was at least 90%. As for `CCC(CC)C(C)N1CCc2c(ncnc2N2CCN(C3CCC3)CC2)C1` (centres unmarked) [Compound 123, 4-(4-cyclobutylpiperazin-1-yl)-7-(2-ethyl-1-methylbutyl)-5,6,7,8-tetrahydropyrido[3,4-d]pyrimidine], the inhibition at 4 µM under setting [1] was at least 90%. Take `CCCCN1CCc2cnc(N3CCN(C4CCC4)CC3)nc2CC1` [Compound 248, 7-butyl-2-(4-cyclobutylpiperazin-1-yl)-6,7,8,9-tetrahydro-5H-pyrimido[4,5-d]azepine]: the inhibition at 4 µM under setting [3] is at least 90%. As for `c1nc2c(c(N3CCN(C4CCC4)CC3)n1)CCN(Cc1ccc3c(c1)OCCO3)C2` [Compound 92, 4-(4-cyclobutylpiperazin-1-yl)-7-(2,3-dihydro-1,4-benzodioxin-6-ylmethyl)-5,6,7,8-tetrahydropyrido[3,4-d]pyrimidine], the inhibition at 4 µM under setting [1] was at least 90%. For `c1cc(N2CCOCC2)ncc1CN1CCc2cnc(N3CCN(C4CCC4)CC3)nc2CC1` [Compound 240, 2-(4-cyclobutylpiperazin-1-yl)-7-[(6-morpholin-4-ylpyridin-3-yl)methyl]-6,7,8,9-tetrahydro-5H-pyrimido[4,5-d]azepine], under setting [3], the inhibition at 4 µM is at least 90%.

Turning to `O=C(COc1cccc2ccccc12)N1CCc2cnc(N3CCN(C4CCC4)CC3)nc2CC1` [Compound 335, 2-(4-cyclobutylpiperazin-1-yl)-7-[(1-naphthyloxy)acetyl]-6,7,8,9-tetrahydro-5H-pyrimido[4,5-d]azepine], under setting [3], the inhibition at 4 µM was at least 90%. Take `CC(C)CN1CCc2cnc(N3CCN(C4CCC4)CC3)nc2CC1` [Compound 251, 2-(4-cyclobutylpiperazin-1-yl)-7-isobutyl-6,7,8,9-tetrahydro-5H-pyrimido[4,5-d]azepine]: under setting [3], the inhibition at 4 µM is at least 90%. On to `COc1cccc(C(=O)N2CCc3cnc(N4CCN(C5CCC5)CC4)nc3CC2)c1OC` [Compound 430, 2-(4-cyclobutylpiperazin-1-yl)-7-(2,3-dimethoxybenzoyl)-6,7,8,9-tetrahydro-5H-pyrimido[4,5-d]azepine], for which the inhibition at 4 µM under setting [2] is at least 90%. The same measure, in the same setting: the same measure for `O=C(c1cccs1)N1CCc2cnc(N3CCN(C4CCC4)CC3)nc2CC1` [Compound 443, 2-(4-cyclobutylpiperazin-1-yl)-7-(2-thienylcarbonyl)-6,7,8,9-tetrahydro-5H-pyrimido[4,5-d]azepine]: at least 90%. On to `O=C(C(c1ccccc1)c1ccccc1)N1CCc2cnc(N3CCN(C4CCC4)CC3)nc2CC1` [Compound 354, 2-(4-cyclobutylpiperazin-1-yl)-7-(diphenylacetyl)-6,7,8,9-tetrahydro-5H-pyrimido[4,5-d]azepine], for which the inhibition at 4 µM under setting [3] is at least 90%. On the same count and under the same terms, the same measure for `O=C(Cc1cccc(C(F)(F)F)c1F)N1CCc2cnc(N3CCN(C4CCC4)CC3)nc2CC1` [Compound 292, 2-(4-cyclobutylpiperazin-1-yl)-7-{[2-fluoro-3-(trifluoromethyl)phenyl]acetyl}-6,7,8,9-tetrahydro-5H-pyrimido[4,5-d]azepine]: at least 90%. As to `COc1cc(C(=O)N2CCc3cnc(N4CCN(C5CCC5)CC4)nc3CC2)cc(Cl)n1` [Compound 485, 7-(2-chloro-6-methoxyisonicotinoyl)-2-(4-cyclobutylpiperazin-1-yl)-6,7,8,9-tetrahydro-5H-pyrimido[4,5-d]azepine], the inhibition at 4 µM under setting [2] is at least 90%.

These data come from patent US20080051387A1, “TETRAHYDROPYRIDO[3,4-D]PYRIMIDINES AND RELATED ANALOGUES” (priority 2006, published 2008).
